Experimental data from patent publication US8334107B2, “Detection systems utilizing supported lipid bilayers” (priority 2005, dated 2012).

B1: FcγRIIb: low affinity IgG receptor, single polypeptide chain of 310 amino acids (protein, UniProt P31994 43-310, looked up)
Low affinity immunoglobulin …: TPAAPPKAVLKLEPQWINVLQEDSVTLTCRGTHSPESDSIQWFHNGNLIPTHTQPSYRFKANNNDSGEYTCQTGQTSLSDPVHLTVLSEWLVLQTPHLEFQEGETIVLRCHSWKDKPLVKVTFFQNGKSKKFSRSDPNFSIPQANHSHSGDYHCTGNIGYTLYSSKPVTITVQAPSSSPMGIIVAVVTGIAVAAIVAAVVALIYCRKKRISALPGYPECREMGETLPEKPANPTNPDEADKVGAENTITYSLLMHPDALEEPDDQNRI

What was measured:
anionic phospholipids [1] = details: cited from earlier work
lipid bilayer = assay: Superquenching of fluorescent polymer coated lipid bilayer beads (general statement); type: biochemical; details: streptolysin O with cholesterol-containing lipids, mellitin with anionic lipids
Source text: On the other hand, some test agents may only lead to gaps or smaller interruptions of the lipid bilayer, for example, as a result of insertion of a channel- or pore-forming proteins such as gramicidin and hemolysin. In either case, the result is either complete or partial superquenching of the fluorescent polymer. In general, non-porous beads are used for such quenching assays because the quenchable polymer is preferably coated onto the beads and is not impregnated into the beads.

anionic phospholipids [2] = assay: Affinity of PLA2 for anionic phospholipids (Kim et al.); type: binding
Source text: From FIG. 18, the association constant (corresponding to the reciprocal of the point of half saturation) for nMLT and sMLT with DMPG were 5×10^6 M^−1 and 1.7×10^6 M^−1, respectively. […] Lower concentrations of nMLT, in comparison to sMLT, were required to disrupt the DMPG lipid bilayer. This might be attributed to the fact that nMLT contains some phospholipase A2 (PLA2) as a contaminant. PLA2 has a high affinity for anionic phospholipids, with an association constant of 0.5×10^10 M^−1 (Kim et al., Anal. Chem. 250, 109-116 (1997)), which is about 3000 fold higher than that of MLT. Although PLA2 activity requires calcium, which is not present in the experimental system, it has been reported that even upon addition of EDTA to natural MLT, PLA2 maintains its activity, probably due to formation of a tight complex with calcium with PLA2 (Dempsey, C. E. Biochim. Biophys. Acta 1990, 1031, 143-161).

[3] = tested on: cholesterol (10%, molar ratio) containing lipid membrane; assay: Release of dye from porous particles coated with cholesterol containing lipid membrane by streptolysin-O; type: biochemical; details: low concentrations of streptolysin-O versus control without
Experimental: FIGS. 22A-B illustrate one aspect of the invention—drug and/or dye release from the present lipid-coated particles. FIG. 22A is a graph showing release of dye from porous particles (containing dye inside) where the particles are coated with a cholesterol (10%, molar ratio) containing lipid membrane. As increasing amounts of streptolysin-O are added (solid square symbols represent lower concentration than solid ovals), more dye is released. […] FIG. 22B illustrates how streptolysin-O can disrupt cholesterol-containing lipid bilayer membranes, leading to release of materials (e.g., drugs or antibiotics) enclosed within the membrane. Streptolysin-O is an anti-microbial protein that preferably binds to cholesterol and can disrupt cholesterol-containing membranes.

monomeric IgG = details: cited from earlier work

| Molecule | association constant (anionic phospholipids [1]) | effect on the lipid bilayer (lipid bilayer) | association constant relative to that of MLT (anionic phospholipids [2]) | release of dye [3] | Kd (monomeric IgG) |
| --- | --- | --- | --- | --- | --- |
| PLA2: lipolytic enzyme, contaminant of natural melittin | 5e+09 M⁻¹ | total disruption of the bilayer | about 3000 fold |  |  |
| streptolysin-O: anti-microbial protein that preferably binds to cholesterol and can disrupt cholesterol-containing membranes |  | total disruption of the bilayer |  | greater than observed for control |  |
| B1 |  |  |  |  | ~1000 nM |
